Earlier results in patent publication US20240000802A1, “DIFLUPREDNATE FOR REDUCING THE ADVERSE EFFECTS OF OCULAR INFLAMMATION” (SUN PHARMA ADVANCED RESEARCH COMPANY LIMITED, priority 2020, published 2024).

solubility in aqueous vehicle: practically insoluble
SMILES: CCCC(=O)O[C@]1(C(=O)COC(C)=O)CC[C@H]2[C@@H]3C[C@H](F)C4=CC(=O)C=C[C@]4(C)[C@@]3(F)[C@@H](O)C[C@@]21C [Difluprednate]
